Measurements as given in ChEMBL document CHEMBL2034941, “Toward Overcoming Staphylococcus aureus Aminoglycoside Resistance Mechanisms with a Functionally Designed Neomycin Analogue” (2011).
Values after ≈ are worked out from the molar mass of the structure shown.

Columns and labels:
Type in all cases: functional
[1] = system: Staphylococcus aureus; assay: Antimicrobial activity against Staphylococcus aureus harboring APH(2'''') and AAC(6') enzymes
[2] = system: Staphylococcus aureus; assay: Antimicrobial activity against Staphylococcus aureus harboring APH(3'/5'''')-3 enzyme
[3] = system: Staphylococcus aureus; assay: Antimicrobial activity against Staphylococcus aureus ATCC 29213
[4] = system: Staphylococcus aureus; assay: Antimicrobial activity against Staphylococcus aureus harboring ANT(4')-1 enzyme
[5] = system: Staphylococcus aureus; assay: Antimicrobial activity against methicillin-resistant Staphylococcus aureus clinical isolate
[6] = system: Staphylococcus aureus; assay: Ratio of amikacin MIC90 to compound MIC90 for methicillin-resistant Staphylococcus aureus clinical isolate
[7] = system: Staphylococcus aureus; assay: Ratio of amikacin MIC50 to compound MIC50 for methicillin-resistant Staphylococcus aureus clinical isolate

Compound	MIC [1]	MIC [2]	MIC [3]	MIC [4]	MIC50 [5]	MIC90 [5]	Ratio [6]	Ratio [7]
NCC[C@H](O)C(=O)N[C@@H]1C[C@H](N)[C@@H](O[C@H]2O[C@H](CO)[C@@H](O)[C@H](O)[C@H]2N)[C@H](O[C@@H]2O[C@H](CO)[C@@H](O[C@H]3O[C@@H](CN)[C@@H](O)[C@H](O)[C@H]3N)[C@H]2O)[C@H]1O	> 32 µg/mL	32 µg/mL (≈ 44.6 µM)	2 µg/mL (≈ 2.79 µM)	> 64 µg/mL				
NC[C@H]1CC[C@@H](N)[C@@H](O[C@H]2[C@@H](O)[C@H](O[C@@H]3[C@@H](O)[C@H](N)C[C@H](N)[C@H]3O[C@H]3O[C@H](CO)CC[C@H]3N)O[C@@H]2CO)O1	> 32 µg/mL		2 µg/mL (≈ 3.63 µM)	4 µg/mL (≈ 7.25 µM)				
NCC[C@H](O)C(=O)N[C@@H]1C[C@H](N)[C@@H](O[C@H]2O[C@H](CO)CC[C@H]2N)[C@H](O[C@@H]2O[C@H](CO)[C@@H](O[C@H]3O[C@@H](CN)CC[C@H]3N)[C@H]2O)[C@H]1O	16 µg/mL (≈ 24.5 µM)		1 µg/mL (≈ 1.53 µM)	8 µg/mL (≈ 12.3 µM)				
NC[C@@H]1CC[C@@H](N)[C@@H](O[C@H]2[C@H](O[C@@H]3O[C@H](CO)[C@@H](O[C@H]4O[C@@H](CN)CC[C@H]4N)[C@H]3O)[C@@H](O)[C@H](N)C[C@@H]2N)O1	> 64 µg/mL	32 µg/mL (≈ 58.1 µM)	0.5 µg/mL (≈ 0.908 µM)	0.5 µg/mL (≈ 0.908 µM)				
NCC[C@H](O)C(=O)N[C@@H]1C[C@H](N)[C@@H](O[C@H]2O[C@H](CN)CC[C@H]2N)[C@H](O[C@@H]2O[C@H](CO)[C@@H](O[C@H]3O[C@@H](CN)CC[C@H]3N)[C@H]2O)[C@H]1O	2 µg/mL (≈ 3.07 µM)	1 µg/mL (≈ 1.53 µM)	0.5 µg/mL (≈ 0.767 µM)	1 µg/mL (≈ 1.53 µM)	0.25 µg/mL (≈ 0.384 µM)	0.5 µg/mL (≈ 0.767 µM)	>64	>64
NCC[C@H](O)C(=O)N[C@@H]1C[C@H](N)[C@@H](O[C@H]2O[C@H](CN)[C@@H](O)[C@H](O)[C@H]2O)[C@H](O)[C@H]1O[C@H]1O[C@H](CO)[C@@H](O)[C@H](N)[C@H]1O [AMIKACIN]	64 µg/mL (≈ 109 µM)	8 µg/mL (≈ 13.7 µM)	4 µg/mL (≈ 6.83 µM)	64 µg/mL (≈ 109 µM)	32 µg/mL (≈ 54.6 µM)	> 64 µg/mL		
NC[C@@H]1O[C@H](O[C@H]2[C@@H](O)[C@H](O[C@@H]3[C@@H](O)[C@H](N)C[C@H](N)[C@H]3O[C@H]3O[C@H](CN)[C@@H](O)[C@H](O)[C@H]3N)O[C@@H]2CO)[C@H](N)[C@@H](O)[C@@H]1O [FRAMYCETIN]	> 64 µg/mL	> 64 µg/mL	0.5 µg/mL (≈ 0.813 µM)	> 64 µg/mL				
CN[C@@H]1[C@@H](O)[C@@H](O[C@@H]2[C@@H](O)[C@H](O[C@H]3O[C@H]([C@@H](C)NC)CC[C@H]3N)[C@@H](N)C[C@H]2N)OC[C@]1(C)O [GENTAMICIN C1]	> 64 µg/mL	0.5 µg/mL (≈ 1.05 µM)	0.5 µg/mL (≈ 1.05 µM)	0.5 µg/mL (≈ 1.05 µM)	> 32 µg/mL	> 32 µg/mL		
NC[C@@H]1O[C@H](O[C@H]2[C@@H](O)[C@H](O[C@@H]3[C@@H](O)[C@H](N)C[C@H](N)[C@H]3O[C@H]3O[C@H](CO)[C@@H](O)[C@H](O)[C@H]3N)O[C@@H]2CO)[C@H](N)[C@@H](O)[C@@H]1O [PAROMOMYCIN]	> 64 µg/mL	> 64 µg/mL	2 µg/mL (≈ 3.25 µM)	> 64 µg/mL				
NC[C@H]1O[C@H](O[C@H]2[C@H](O[C@@H]3O[C@H](CO)[C@@H](O)[C@H]3O)[C@@H](O)[C@H](N)C[C@@H]2N)[C@H](N)[C@@H](O)[C@@H]1O [RIBOSTAMYCIN]	> 64 µg/mL	> 64 µg/mL	8 µg/mL (≈ 17.6 µM)	> 64 µg/mL				
butirosin	> 32 µg/mL	> 32 µg/mL	8 µg/mL	> 32 µg/mL				
